Non-standard residues stand in square brackets, D forms with d. Residues, ends and D or L forms follow the SMILES beside them. *: point of attachment. 5FAM = O=C1OC2(c3ccc(O)cc3Oc3cc(O)ccc32)c2ccc(C(=O)*)cc21; MethylRed = CN(C)c1ccc(/N=N/c2ccccc2C(=O)*)cc1; AEEA = NCCOCCOCC(=O)O; βAla = NCCC(=O)O
Experiments:
[1] = target: T1, rhFAP (Homo sapiens, UniProt Q12884); experiment: Probe cleavage by recombinant human FAP (fluorescence plate assay, MALDI confirmation); format: biochemical; conditions: probe 5 µM; for Cleavage by rhFAP (fluorescence signal): rhFAP 0.1 µg/ml, TRIS buffer (pH 7.5), 20 µl, read 480/530 nm, n=3 run in triplicate; for FAP specificity (over PREP): rhFAP compared with rhPREP, each 0.1 µg/ml
T1 construct: purchased R&D Systems
T1 sequence (Q12884 26-760 limits assumed): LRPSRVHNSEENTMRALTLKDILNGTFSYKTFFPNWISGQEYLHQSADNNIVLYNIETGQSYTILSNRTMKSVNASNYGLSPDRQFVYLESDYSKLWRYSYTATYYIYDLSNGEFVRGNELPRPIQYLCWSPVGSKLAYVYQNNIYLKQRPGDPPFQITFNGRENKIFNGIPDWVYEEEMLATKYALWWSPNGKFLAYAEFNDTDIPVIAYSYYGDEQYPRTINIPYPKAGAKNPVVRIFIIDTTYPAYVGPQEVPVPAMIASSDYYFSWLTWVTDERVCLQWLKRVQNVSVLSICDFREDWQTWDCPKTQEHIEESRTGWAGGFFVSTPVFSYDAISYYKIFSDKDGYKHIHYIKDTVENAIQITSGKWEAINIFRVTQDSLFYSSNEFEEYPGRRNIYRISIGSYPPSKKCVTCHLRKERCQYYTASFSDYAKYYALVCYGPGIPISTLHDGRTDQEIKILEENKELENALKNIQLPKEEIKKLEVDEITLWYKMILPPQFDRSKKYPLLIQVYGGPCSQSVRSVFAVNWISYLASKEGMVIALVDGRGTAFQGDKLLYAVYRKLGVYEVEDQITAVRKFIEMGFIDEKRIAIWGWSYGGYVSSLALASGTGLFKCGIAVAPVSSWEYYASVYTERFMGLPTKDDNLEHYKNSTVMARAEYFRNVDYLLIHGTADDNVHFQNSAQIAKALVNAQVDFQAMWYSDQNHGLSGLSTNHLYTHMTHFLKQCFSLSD

[2] = target: T2, rhPREP (Homo sapiens, UniProt P48147); experiment: Probe cleavage by recombinant human PREP (fluorescence plate assay, MALDI confirmation); format: biochemical; conditions: probe 5 µM, rhPREP 0.1 µg/ml, TRIS buffer pH 7.5, read 480/530 nm, n=3 run in triplicate
T2 construct: purchased R&D Systems
T2 sequence (P48147 1-710): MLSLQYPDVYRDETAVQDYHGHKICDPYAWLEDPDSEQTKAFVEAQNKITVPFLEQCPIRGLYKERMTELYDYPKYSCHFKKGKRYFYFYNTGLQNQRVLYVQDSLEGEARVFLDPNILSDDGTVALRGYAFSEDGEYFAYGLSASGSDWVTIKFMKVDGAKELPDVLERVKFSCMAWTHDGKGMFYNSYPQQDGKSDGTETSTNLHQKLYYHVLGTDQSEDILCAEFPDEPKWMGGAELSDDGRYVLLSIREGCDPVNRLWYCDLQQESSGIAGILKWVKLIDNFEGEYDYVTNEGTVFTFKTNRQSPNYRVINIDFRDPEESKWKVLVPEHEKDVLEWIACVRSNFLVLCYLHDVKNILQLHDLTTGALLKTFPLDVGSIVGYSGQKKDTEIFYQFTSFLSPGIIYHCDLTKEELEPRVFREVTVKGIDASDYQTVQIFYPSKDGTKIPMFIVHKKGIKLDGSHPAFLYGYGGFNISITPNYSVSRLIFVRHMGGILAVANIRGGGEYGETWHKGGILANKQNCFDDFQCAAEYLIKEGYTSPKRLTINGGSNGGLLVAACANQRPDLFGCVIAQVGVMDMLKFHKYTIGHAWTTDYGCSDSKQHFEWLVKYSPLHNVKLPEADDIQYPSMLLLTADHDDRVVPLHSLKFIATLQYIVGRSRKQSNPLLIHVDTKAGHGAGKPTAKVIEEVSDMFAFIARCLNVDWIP

[3] = target: rhDPPIV (Homo sapiens, UniProt P27487); experiment: Probe cleavage by recombinant human DPP-IV (exopeptidase activity); conditions: probe 5 µM, rhDPPIV 0.1 µg/ml, TRIS buffer pH 7.5, read 480/530 nm, n=3 run in triplicate
Protocol: Recombinant human enzymes [rhFAP (R&D Systems), rhPREP (R&D Systems) and rhDPPIV (Biolegend)] were stored in stocks at -70°C and diluted as required to be used at final concentration of 0.1 µg/ml. Enzymes were aliquoted upon receipt from the supplier and new stocks made from a fresh aliquot as required.
Assays were undertaken in triplicate in blackened 384 well plates on ice prior to spectral reads. […] All wells contained a final volume of 20 µl to include buffers, inhibitors (if used), substrates and recombinant human enzymes (at a concentration of 0.1 µg/ml unless otherwise stated). […] Plates were sealed with an optical plate sealer (Biolegend) and were read in a preheated spectrophotometer (Synergy Biotek) in monochromator-based mode at 380/460 nm for control substrates and 480/530 nm for synthesised FAP probes.

[4] = test system: NSCLC patient tissue samples; experiment: Fluorescence intensity and lifetime imaging (FLIM) of ex vivo NSCLC tissue; set-up: species or system human; conditions: Talabostat at a dilution of 1:1000 with FAP3 5 µM, N=5
Protocol: For imaging solutions, varying concentrations of rhFAP were prepared in blackened eppendorfs and FAP3 to a final concentration of 5µM added and imaged as below. For biological specimens, NSCLC patient tissue samples from surgical resection were used fresh or snap frozen and stored at -80°C until required. Small fragments (approx. 4mm^3) incubated at 37°C in a 96 well plate in phenyl-red free DMEM (Gibco) containing 10% FCS, 1% Penicillin-streptomycin and 1% L-Glutamine. For the tissue fragments to be used as inhibitor controls, we added Talabostat at a dilution of 1:1000. Samples were then imaged using a clinically approved fluorescence lifetime imaging system used in conjunction with an imaging fibre ([30]) providing a 400 x 400 µm field of view. The imaging system incorporates a pulsed supercontinuum laser source, in this case tuned for excitation at 488 nm, with an achromatic confocal laser scanning system and a time-resolved spectrometer. This spectrometer contains a 512 channel single photon avalanche diode (SPAD) sensor ([31]) allowing for the rapid collection of time resolved spectral fluorescence lifetime data. Fluorescence intensity and lifetime images were collected using an image resolution of 160 x 160 pixels over a 498 – 570 nm spectral range with an exposure time of 13 µs per pixel. This led to an imaging rate of ~3 frames per second.
For each condition, the tumour samples were imaged using a fibre placed at the surface of the tissue (baseline), and then again at 10-minute intervals following the additions of equimolar concentrations of probe +/- Inhibitor. For imaging solutions, the fibre was held within the solution and imaged every 5 minutes. Each condition and time-point data for both fluorescence intensity and lifetime were collected. Imaging sequences had non-relevant frames removed, and the entire field of view was analysed. Analysis was undertaken using a bespoke software suite utilising the rapid lifetime determination (RLD) method ([32]). […]

[5] = test system: DPP-IV; conditions: cited from earlier work
Description: As starting point for our study, a peptide sequence previously published within a FAP optical reporter was synthesised (GPGPNQ), which had been determined to be FAP specific over DPP-IV but had not been assessed against PREP ([24]). We synthesised the reported peptide sequence but for FRET pairing we utilised a Carboxyfluorescein (FAM) fluorophore with a Methyl Red quencher ( Figure 1A ) as an alternative to Cy5.5/QSY21. The peptide sequence was synthesized by Fmoc solid-phase peptide synthesis on ChemMatrix resin using Oxyma/DIC as the coupling combination. FAM was incorporated at the N-termi ...

[6] = test system: FAP expressing tumours; conditions: murine tumour models, NIR fluorescence; cited from earlier work
Description: Prior studies investigating FAP as an optical probe target focussed on near infrared (NIR) fluorophores where signal can be detected with minimal intrinsic tissue autofluorescence. Li et al. designed an activatable NIR fluorescent probe (ANPFAP) for FAP which was composed of the NIR dye Cy5.5 and the quencher dye QSY21 which were linked by a peptide sequence which is cleaved specifically by FAP (KGPGPNQC) ([24]). […] Although not developed as an imaging optical ...

Chain of rhDPPIV (P27487 29-766 limits assumed): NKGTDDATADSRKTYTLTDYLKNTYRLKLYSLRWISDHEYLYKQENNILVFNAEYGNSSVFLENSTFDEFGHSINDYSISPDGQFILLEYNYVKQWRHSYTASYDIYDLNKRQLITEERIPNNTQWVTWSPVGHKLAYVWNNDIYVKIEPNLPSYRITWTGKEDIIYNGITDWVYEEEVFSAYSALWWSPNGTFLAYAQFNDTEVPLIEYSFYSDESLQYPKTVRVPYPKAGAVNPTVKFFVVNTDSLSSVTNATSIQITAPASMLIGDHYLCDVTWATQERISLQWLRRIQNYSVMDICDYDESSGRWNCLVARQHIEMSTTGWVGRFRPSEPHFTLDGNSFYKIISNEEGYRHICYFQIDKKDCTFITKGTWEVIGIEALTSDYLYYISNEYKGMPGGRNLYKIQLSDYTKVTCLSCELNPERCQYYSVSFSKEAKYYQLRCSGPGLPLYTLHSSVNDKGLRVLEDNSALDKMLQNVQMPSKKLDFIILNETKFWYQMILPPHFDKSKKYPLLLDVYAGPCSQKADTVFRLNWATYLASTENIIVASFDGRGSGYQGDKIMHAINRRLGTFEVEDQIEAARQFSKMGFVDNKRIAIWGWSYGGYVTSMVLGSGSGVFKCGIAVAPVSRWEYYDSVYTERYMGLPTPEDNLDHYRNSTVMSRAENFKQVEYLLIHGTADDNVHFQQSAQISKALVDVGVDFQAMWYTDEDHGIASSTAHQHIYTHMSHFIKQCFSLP

Row | Molecule | Cleavage by rhFAP (fluorescence signal) [1] | Cleavage by rhPREP (fluorescence signal) [2] | FAP specificity (over PREP) [1] | other results
1 | CN(C)c1ccc(/N=N/c2ccccc2C(=O)NCCCC[C@H](N)C(=O)NCCC(=O)N2CCC[C@H]2C(=O)N[C@@H](CO)C(=O)N[C@@H](CCCCNC(=O)c2ccc3c(c2)C(=O)OC32c3ccc(O)cc3Oc3cc(O)ccc32)C(=O)NCCOCCOCC(=O)N[C@H](CCCCN)C(=O)NCCOCCOCC(=O)N[C@H](CCCCN)C(=O)NCCOCCOCC(=O)N[C@H](CCCCN)C(N)=O)cc1 [FAP2Fβ-Ala] (H-K(MethylRed)[βAla]PSK(5FAM)[AEEA][dK][AEEA][dK][AEEA][dK]-NH2) | reduced signal |  | FAP specificity over PREP | 
2 | CC(C)[C@H](NC(=O)[C@@H](N)CCCCNC(=O)c1ccccc1/N=N/c1ccc(N(C)C)cc1)C(=O)N[C@H](CO)C(=O)N1CCC[C@H]1C(=O)N[C@@H](CO)C(=O)N[C@@H](CCC(N)=O)C(=O)NCC(=O)N[C@@H](CCCCNC(=O)c1ccc2c(c1)C(=O)OC21c2ccc(O)cc2Oc2cc(O)ccc21)C(=O)NCCOCCOCC(=O)N[C@H](CCCCN)C(=O)NCCOCCOCC(=O)N[C@H](CCCCN)C(=O)NCCOCCOCC(=O)N[C@H](CCCCN)C(N)=O [FAP-sP, reference compound] (H-K(MethylRed)V[dS]PSQGK(5FAM)[AEEA][dK][AEEA][dK][AEEA][dK]-NH2) |  | no rhPREP cleavage | demonstrated FAP specificity | Cleavage by DPP-IV (exopeptidase activity, fluorescence signal) [3]: no cleavage
3 | CC(C)[C@H](N)C(=O)N1CCC[C@H]1B(O)O [Talabostat, Val-boroPro, reference compound] |  |  |  | Inhibition of FAP3 intensity and lifetime change in NSCLC tissue [4]: abrogated; IC50 [5]: 4 nM
4 | KGPGPNQC [ANPFAP] |  |  |  | Signal in FAP expressing tumours [6]: higher signal

The next lines start with results.

Row | Cleavage by rhFAP (fluorescence signal) [1] | Cleavage by rhPREP (fluorescence signal) [2] | FAP specificity (over PREP) [1] | Molecule | other results
5 | FAP activity was absent | demonstrated cleavage by PREP |  | C[C@H](NC(=O)[C@@H](N)CCCCNC(=O)c1ccccc1/N=N/c1ccc(N(C)C)cc1)C(=O)N1CCC[C@H]1C(=O)N[C@@H](CO)C(=O)N[C@@H](CCCCNC(=O)c1ccc2c(c1)C(=O)OC21c2ccc(O)cc2Oc2cc(O)ccc21)C(=O)NCCOCCOCC(=O)N[C@H](CCCCN)C(=O)NCCOCCOCC(=O)N[C@H](CCCCN)C(=O)NCCOCCOCC(=O)N[C@H](CCCCN)C(N)=O [FAP2AAla] (H-K(MethylRed)APSK(5FAM)[AEEA][dK][AEEA][dK][AEEA][dK]-NH2) | 
6 | reduced signal |  | FAP specificity over PREP | C[C@@H](NC(=O)[C@@H](N)CCCCNC(=O)c1ccccc1/N=N/c1ccc(N(C)C)cc1)C(=O)N1CCC[C@H]1C(=O)N[C@@H](CO)C(=O)N[C@@H](CCCCNC(=O)c1ccc2c(c1)C(=O)OC21c2ccc(O)cc2Oc2cc(O)ccc21)C(=O)NCCOCCOCC(=O)N[C@H](CCCCN)C(=O)NCCOCCOCC(=O)N[C@H](CCCCN)C(=O)NCCOCCOCC(=O)N[C@H](CCCCN)C(N)=O [FAP2BD-Ala] (H-K(MethylRed)[dA]PSK(5FAM)[AEEA][dK][AEEA][dK][AEEA][dK]-NH2) | 
7 | highest rate of cleavage | without PREP cleavage | FAP specificity over PREP | CN(C)c1ccc(/N=N/c2ccccc2C(=O)NCCCC[C@H](N)C(=O)N[C@H](CO)C(=O)N2CCC[C@H]2C(=O)N[C@@H](CO)C(=O)N[C@@H](CCCCNC(=O)c2ccc3c(c2)C(=O)OC32c3ccc(O)cc3Oc3cc(O)ccc32)C(=O)NCCOCCOCC(=O)N[C@H](CCCCN)C(=O)NCCOCCOCC(=O)N[C@H](CCCCN)C(=O)NCCOCCOCC(=O)N[C@H](CCCCN)C(N)=O)cc1 [FAP2CD-Ser] (H-K(MethylRed)[dS]PSK(5FAM)[AEEA][dK][AEEA][dK][AEEA][dK]-NH2) | Cleavage by rhFAP (fluorescence signal) ([1]; listed as D-Ser): reduced signal
8 | reduced signal |  | FAP specificity over PREP | C[C@H](O)[C@@H](NC(=O)[C@@H](N)CCCCNC(=O)c1ccccc1/N=N/c1ccc(N(C)C)cc1)C(=O)N1CCC[C@H]1C(=O)N[C@@H](CO)C(=O)N[C@@H](CCCCNC(=O)c1ccc2c(c1)C(=O)OC21c2ccc(O)cc2Oc2cc(O)ccc21)C(=O)NCCOCCOCC(=O)N[C@H](CCCCN)C(=O)NCCOCCOCC(=O)N[C@H](CCCCN)C(=O)NCCOCCOCC(=O)N[C@H](CCCCN)C(N)=O [FAP2DD-Thr] (H-K(MethylRed)[dT]PSK(5FAM)[AEEA][dK][AEEA][dK][AEEA][dK]-NH2) | 
9 | loss of FAP activity |  |  | CN(C)c1ccc(/N=N/c2ccccc2C(=O)NCCCC[C@H](N)C(=O)N[C@H](Cc2ccc(O)cc2)C(=O)N2CCC[C@H]2C(=O)N[C@@H](CO)C(=O)N[C@@H](CCCCNC(=O)c2ccc3c(c2)C(=O)OC32c3ccc(O)cc3Oc3cc(O)ccc32)C(=O)NCCOCCOCC(=O)N[C@H](CCCCN)C(=O)NCCOCCOCC(=O)N[C@H](CCCCN)C(=O)NCCOCCOCC(=O)N[C@H](CCCCN)C(N)=O)cc1 [FAP2ED-Tyr] (H-K(MethylRed)[dY]PSK(5FAM)[AEEA][dK][AEEA][dK][AEEA][dK]-NH2) | 

— PMC8961646, “Fibroblast Activation Protein Specific Optical Imaging in Non-Small Cell Lung Cancer” (Frontiers in Oncology, 2022)
